Tests used:
Smo = Smo (Mus musculus, UniProt P56726); experiment: FRET assay for Smo multimerization (Smo-CFP/Smo-YFP); format: cell-based, murine; design: expressed in transfected cells; host or cells: NIH-3T3; details: 10 μM cyclopamine, 500 nM SAG, 10 μM HPIs
Experimental: FRET assay for Smo multimerization. […] The cells were washed with PBS buffer, fixed with 4% paraformaldehyde for 20 min, and mounted on slides in 80% glycerol. Fluorescence signals were acquired with the 100× objective of a Zeiss LSM510 confocal microscope with the following conditions: CFP was excited by 458-nm light and the emission was collected through a BP 480-520-nm filter. YFP was excited by 514-nm light and the emission was collected through a BP 535-590-nm filter. The CFP signal was obtained before and after photobleaching YFP(CFPBP and CFPAP, respectively) using the full power of the 514-nm laser line for 1-2 min at the top half of each cell, leaving the bottom half unbleached as an internal control. The CFP fluorescence intensity was analyzed using Metamorph software (Universal Imaging Corp.), and the energy transfer efficiency was calculated using the formula: FRET %=((CFPAP−CFPBP)/CFPAP)×100. Photobleached areas in 11-19 cells were analyzed for each experimental condition.

Hh pathway [1] = details: β-galactosidase reporter
Experimental: Ptch1^−/− fibroblast assay for Hh pathway activation Hh pathway activation in Ptch1^−/− fibroblasts was assayed as previously described, using the knocked-in β-galactosidase gene as a reporter for Hh target gene expression. Ptch1^−/− fibroblasts were grown to 70-80% confluence in a 15-cm dish, trypsinized, and then resuspended in 40 mL of DMEM containing 10% FBS, 100 U/mL penicillin, and 0.1 mg/mL DMSO. This cell suspension was aliquoted into 96-well plates (150 μL/well), cultured overnight, and then treated with DMSO or various concentrations of the HPIs for 28 h. […] The cells were then lysed in Tropix lysis solution (30 μL/well; Applied Biosystems) and β-galactosidase levels were quantified by a Tropix Galacto-Star kit (Applied Biosystems) on a Veritas microplate luminometer.

FLAG-Gli2 = experiment: Analysis of Gli2 processing and Shh-dependent Gli2 stabilization; format: cell-based, mouse; details: Shh-EGFP FLAG-Gli2 cells, absence and presence of Shh, 24 h
Experimental: Analysis of Gli2 processing and Shh-dependent Gli2 stabilization. […] Each compound incubation was also done in the absence and presence of 5% Shh-N-conditioned medium, and the cells were maintained under these conditions for 24 h. The cells were subsequently solubilized in lysis buffer (100 μL/well; 50 mM Tris-HCl, pH 7.4, 1% Triton X-100, 250 mM NaCl, 2 mM EDTA, 20 mM NaF, 2 mM Na3VO4, 2 mM 2-mercaptoethanol, EDTA-free protease inhibitor cocktail (Roche)). This suspension was transferred to a 1.5-mL centrifuge tube and incubated on ice for 30 min, with vortexing every 5 min. The cell lysates were then centrifuged at 20,000×g at 4° C. for 20 min. Supernatants were removed, and a BCA protein assay was performed to quantify protein levels. Mouse anti-FLAG M2 agarose slurry (20 μL, Sigma) was pelleted by centrifugation and incubated with 800 ng of protein from each condition for 90 min at 4° C. and then washed three times with 1 mL of wash buffer (75 mM Tris-HCl buffer, pH 8.0 containing 225 mM NaCl, 0.5% Triton X-100) and centrifuged at 2,300×g at 4° C. The agarose beads were suspended in 30 μL of 1×SDS-PAGE sample buffer (50 mM Tris-HCl, pH 6.8 containing 10% glycerol, 2% SDS, 50 mM DTT, 200 mM 2-mercaptoethanol, and 0.001% bromophenol blue), and the mixture was boiled for 5 min. The samples were then resolved on a 4-12% Bis-Tris Criterion XT gel and transferred to a PVDF membrane. The membrane was dehydrated with methanol, and then probed with rabbit anti-FLAG antibody (Sigma; 1:1,000 dilution in blocking buffer (PBS 21 containing 3% non-fat dried milk and 0.01% Tween 20)) for 90 min. […] Blots were washed 4×3 min in PBS, and the immunoreactive bands were detected with a SuperSignal West Dura kit and a ChemiDoc XRS system. Protein bands were quantified using Quantity One software (Bio-Rad). For each experiment, boxes of equal size were drawn around the FLAG-Gli2 and FLAG-Gli2R bands. Band intensities were then normalized to the average intensity for all bands in a given experiment. The results from all experiments were averaged and normalized relative to the basal level of FLAG-Gli2 (DMSO treatment without Shh-N-conditioned medium).

Hh pathway [2] = experiment: Shh-LIGHT2 assay for Hh pathway activation (Gli-dependent firefly luciferase); format: cell-based; details: 0.5 μM SAG versus Shh
Experimental: Shh-LIGHT2 assay for Hh pathway activation and library screening conditions. h-N-conditioned medium was prepared as previously described. […] For 96-well plate assays, Shh-LIGHT2 cells were seeded into each plate (10,000 cells/well) and cultured to confluency. The Shh-LIGHT2 cells were then grown in DMEM containing 0.5% CS, 100 U/mL penicillin, 0.1 mg/mL streptomycin, either 5% Shh-N-conditioned medium or 500 nM SAG, and various concentrations of the HPIs. After the cells were cultured for another 30 h, the resulting firefly and Renilla luciferase activities were measured using a Dual Luciferase Reporter kit (Promega) and a Veritas microplate luminometer (Turner Biosystems).
When the cells reached >90% confluency, they were removed by trypsinization and diluted to a final volume of 50 mL medium. This cell suspension was then plated into clear-bottom, white-walled 384-well plates using a Titertek Multidrop dispenser (50 μL/well) and the cells were cultured until they reached confluency (3-4 days). […] The plates were then placed into an automated Staccato system (Caliper Life Sciences), which includes an automated CO2 incubator. An automated protocol was then run, in 3 which a Multidrop dispenser added 10 μL of a SAG solution in 0.5% CS medium (final SAG concentration of 500 nM) to columns 1-22 and 100 nL of each compound solution was added to the plates using a V&P Scientific pin tool, resulting in a final compound screening concentration of 10 μM. The SAG-free wells were used as negative controls. After 28-32 h, the assay medium was manually removed and the plates were frozen. To assay the firefly luciferase activities, the plates were thawed and placed into a Twister II stacker in the Staccato system. Bright-Glo luciferase substrate (Promega) was added by the Multidrop dispenser and the plates were analyzed on an Analyst GT microplate reader (2 min in the dark, 0.2 sec integration/well; Molecular Devices). Hits were defined as compounds that reduce the firefly luciferase signal by at least 50% compared to inhibitor-free controls. Primary hits were then re-tested in duplicate in an eight-point, 1:1 serially diluted doseresponse curve with a starting concentration of 20 μM. In these experiments, the median inhibitory concentration (IC50) for both firefly and Renilla luciferase were determined using a Dual-Glo kit (Promega).

Hh pathway [3] = system: Hh pathway
Experimental: SmoM2-LIGHT assay for Hh pathway activation. SmoM2-LIGHT cells (previously named SmoA1-LIGHT cells) were grown to 70-80% confluence in a 15-cm dish, trypsinized, and then resuspended in 40 mL of DMEM containing 10% FBS, 100 U/mL penicillin, and 0.1 mg/mL DMSO. This cell suspension was aliquoted into 96-well plates (150 μL/well), cultured overnight, and then treated with DMSO or various concentrations of the HPIs for 28 h. Cells were then washed once with PBS then treated with 50 μL of passive lysis buffer (Promega). Hh pathway-dependent firefly luciferase activity in the lysates was quantified using Bright-Glo reagent and a Veritas microplate luminometer. Constitutive β-galactosidase activity was measured using the Tropix Galacto-Star kit.

Hh pathway [4] = experiment: Shh-EGFP assay for Hh pathway activation; format: cell-based; details: 3 μM cyclopamine; 15 μM HPI-1, 20 μM HPI-2, 30 μM HPI-3, 30 μM HPI-4
Experimental: Shh-EGFP assay for Hh pathway activation. A Gli-dependent enhanced green fluorescent protein reporter (Shh-EGFP) was generated by excising firefly luciferase cDNA from the 8XGliBs vector using NcoI/Hpal, and ligating in EGFP cDNA excised from the pEGFP-C1 vector (Clontech) by NcoI/Af/II digestion. […] The cells were grown to confluency and treated with DMEM containing 0.5% CS, 100 U/mL penicillin, 0.1 mg/mL streptomycin, and 5% Shh-N-conditioned medium for 30 h. Following Shh-N treatment, the adherent cultures were dissociated into single cells with 0.05% Trypsin-EDTA (300 μL/well; Invitrogen) for 5 min. The cells were then suspended in 1 mL of PBS containing 1% CS and sorted on a BD FACSAria (excitation: 488 nm; emission: 530/30 nm) to enrich for cells expressing EGFP in a Shh-N-responsive manner. […] To identify Shh-EGFP clones with maximum Shh-N-responsiveness, individual lines were seeded into 24-well plates (45,000 cell/well) and cultured for 48 h. The cells were then treated with DMEM containing 0.5% CS, 100 U/mL pencillin, 0.1 mg/mL streptomycin or the culture medium plus 5% Shh-N-conditioned medium. After 30 h, the adherent cultures were treated with 0.05% trypsin-EDTA (150 μL/well; Invitrogen) for 5 min to dissociate them into single cells. The cells were then resuspended in 500 μL of PBS containing 1% CS and analyzed on a BD FACSCalibur (excitation: 488 nm; emission: 530/30 nm). 10,000 cells were used to assess EGFP expression levels as a measure of Hh pathway activation, and the data was analyzed using FlowJo software (Tree Star). Clones with low basal EGFP levels and maximum Shh-Ninduced EGFP expression were selected for further use. To assess the inhibitory activities of the HPIs in the Shh-EGFP cells, a clonal line with maximum Shh-responsiveness was cultured in 24-well plates as described above. […] The resulting EGFP levels were then evaluated by FACS and quantified using the FlowJo software.

C3H10T(1/2) cells = experiment: C3H10T(1/2) assay for Hh pathway activation (alkaline phosphatase); format: cell-based
Experimental: C3H10T(1/2) assay for Hh pathway activation. C3H10T(1/2) cells (ATCC) were plated into 96-well plates using DMEM containing 10% FBS, 100 U/mL penicillin, 0.1 mg/mL streptomycin, 5% Shh-N-conditioned medium, and various concentrations of the Hh pathway inhibitors. After approximately 40 h, the cells were washed with PBS and lysed in 50 μL of buffer containing 50 mM Tris-HCl, pH 9.5, 150 mM NaCl, 5 mM MgCl2, and 1% Triton X-100. Alkaline phosphatase activities in the cell lysates were quantified by adding 10 μL of the lysate to 50 μL of CDP-Star chemiluminescence reagent (Perkin Elmer) and measuring the resulting chemiluminescence on a Veritas microplate luminometer.

MAPK = details: NIH-3T3 cells, 10 μM U0126
Experimental: NIH-3T3 cells were seeded into 6-well plates and grown to 80% confluency in DMEM containing 10% CS, 100 U/mL penicillin, and 0.1 mg/mL streptomycin. Cells were then serumstarved for 8 h in DMEM containing 0.5% CS and either DMSO, 15 μM HPI-1, 20 μM HPI-2, 30 μM HPI-3, or 30 μM HPI-4. 50 μM LY294002 and 10 μM U0126 were used as positive controls. After serum starvation, cells were stimulated with 10 ng/ml PDGF BB for 30 min, washed in PBS, and lysed in buffer containing 50 mM Tris HCl pH 7.4, 250 mM NaCl, 20 mM NaF, 2 mM sodium orthovanadate, 2 mM EDTA, 2 mM PMSF, 1% Triton X-100, and EDTA free protease inhibitor cocktail (Roche). Cell lysates were clarified by centrifugation at 20,000×g and total protein concentrations were determined by the BCA assay (Pierce). 15 μg of protein from each lysate was mixed with 6×SDS-PAGE sample buffer (300 mM Tris-HCl, pH 6.8 containing 60% glycerol, 12% SDS, 600 mM DTT, and 0.05% bromophenol blue), boiled for 17 5 min and then resolved on 4-12% Bis-Tris Criterion XT gels. The electrophoresed samples were transferred to PVDF membranes and blocked overnight in TBST buffer containing 5% BSA. […]

Smo, sequence (P56726 33-793): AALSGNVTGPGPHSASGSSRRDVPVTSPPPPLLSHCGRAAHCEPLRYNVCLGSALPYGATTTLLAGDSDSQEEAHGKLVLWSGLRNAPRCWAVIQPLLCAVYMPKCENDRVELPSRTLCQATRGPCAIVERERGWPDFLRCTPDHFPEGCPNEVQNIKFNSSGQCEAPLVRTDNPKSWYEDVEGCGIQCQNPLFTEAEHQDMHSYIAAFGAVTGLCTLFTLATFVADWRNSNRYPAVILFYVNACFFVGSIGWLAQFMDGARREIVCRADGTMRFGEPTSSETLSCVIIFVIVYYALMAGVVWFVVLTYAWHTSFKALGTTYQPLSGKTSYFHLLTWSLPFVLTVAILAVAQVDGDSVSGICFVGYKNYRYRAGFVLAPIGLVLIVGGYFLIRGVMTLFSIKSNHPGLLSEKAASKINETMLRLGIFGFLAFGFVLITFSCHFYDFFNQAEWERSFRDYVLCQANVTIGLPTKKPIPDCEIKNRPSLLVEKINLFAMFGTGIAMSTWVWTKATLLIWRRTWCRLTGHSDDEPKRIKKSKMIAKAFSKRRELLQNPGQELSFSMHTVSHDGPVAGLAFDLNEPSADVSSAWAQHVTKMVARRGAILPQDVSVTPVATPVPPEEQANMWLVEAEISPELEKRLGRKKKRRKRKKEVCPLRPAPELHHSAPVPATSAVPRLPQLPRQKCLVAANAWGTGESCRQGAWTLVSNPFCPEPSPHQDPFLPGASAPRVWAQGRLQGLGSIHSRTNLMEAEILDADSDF
Smo, sequence (P56726 33-793): as above

`CNC1CCC(N(Cc2cccc(-c3ccncc3)c2)C(=O)c2sc3ccccc3c2Cl)CC1` (centres unmarked) [SAG, reference compound] was tested, and the “Shh-induced fold change in Smo-CFP/Smo-YFP FRET” value (Smo) was “Shh-insensitive”.

In the case of `CC1=C2C[C@H]3[C@@H](CC=C4C[C@@H](O)CC[C@@]43C)[C@@H]2CC[C@]12O[C@@H]1C[C@H](C)CN[C@H]1[C@H]2C` [cyclopamine, reference compound], the “Inhibition of Hh pathway activity in Ptch1-/- fibroblasts” value (Hh pathway [1]) is reported as “inhibit Hh pathway activity”, the “FLAG-Gli2 levels and processing (immunoblotting)” value (FLAG-Gli2) is reported as “can suppress the effects of Shh” and the “Inhibition of Hh pathway activation induced by 0.5 μM SAG” value (Hh pathway [2]) is reported as “resistant to inhibition”. For the same molecule, the “Inhibition of SmoM2-dependent Gli reporter expression in SmoM2-LIGHT cells” value (Hh pathway [3]) was “significantly less potent”, the “Fluorescence intensity of Shh-treated Shh-EGFP cells (FACS, words)” value (Hh pathway [4]) was “fluorescence intensities similar to those of untreated cells” and the “Block of Shh-induced differentiation of C3H10T(1/2) cells into osteoblasts” value (C3H10T(1/2) cells) was “block the Shh-induced differentiation”.

For `N#CC(=C(/N)Sc1ccccc1N)/C(C#N)=C(\N)Sc1ccccc1N` [Compound U0126], the “PDGF-induced phosphorylation of p44/p22 MAPK” value (MAPK) was “blocked p44/p22 MAPK phosphorylation”.

— patent publication US8119640B2, “Hedgehog pathway antagonists methods of use” (The Board of Trustees of the Leland Stanford Junior …, priority 2008, dated 2012)
